Measurements: the supplement of paper PMC10307832

Experiments:
Experiment in all cases: relative viability (nuclei count vs DMSO), 5 days (fraction); higher = more cells survive
[1] = compound: C1CNCCC1C2=CC(=NN2)C3=CC=NC=C3 + CC1(C)CCC(c2ccc(Cl)cc2)=C(CN2CCN(c3ccc(C(=O)NS(=O)(=O)c4ccc(N[C@H](CCN5CCOCC5)CSc5ccccc5)c(S(=O)(=O)C(F)(F)F)c4)cc3)CC2)C1 [Navitoclax] (partner 0.5 µM)
How it was run: (§1)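 For relative viability, nuclei counts in treated wells were divided by those in vehicle wells. Lung cancer cell lines had been pin-tool dosed in 1536-well plates the day after seeding and cultured for 5 days, then fixed and stained in one step (final 0.05% Triton X-100, 1% formaldehyde, 1 ug/ml Hoechst) and imaged at 4×. Doses were one drug alone or a fixed anchor-drug dose plus five library-drug doses (not always all listed) in √10 steps, and values are duplicate-plate medians.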

[2] = compound: C[C@@H](N)c1ccc(C(=O)Nc2ccnc3[nH]ccc23)cc1 + CC1(C)CCC(c2ccc(Cl)cc2)=C(CN2CCN(c3ccc(C(=O)NS(=O)(=O)c4ccc(N[C@H](CCN5CCOCC5)CSc5ccccc5)c(S(=O)(=O)C(F)(F)F)c4)cc3)CC2)C1 [Navitoclax] (partner 0.5 µM)
How it was run: as §1

Tanzisertib + Pemetrexed = compound: O[C@H]1CC[C@H](Nc2ncc3nc(Nc4c(F)cc(F)cc4F)n([C@H]4CCOC4)c3n2)CC1 [Tanzisertib] + Nc1nc2[nH]cc(CCc3ccc(C(=O)N[C@@H](CCC(=O)O)C(=O)O)cc3)c2c(=O)[nH]1 [Pemetrexed] (partner 0.2 µM)
How it was run: as §1

[3] = compound: C[C@@H](N)c1ccc(C(=O)Nc2ccnc3[nH]ccc23)cc1 + CC(=O)c1c(C)c2cnc(Nc3ccc(N4CCNCC4)cn3)nc2n(C2CCCC2)c1=O [Palbociclib] (partner 0.5 µM)
How it was run: as §1

Cell Line | relative viability ([1]; first compound 0.08 µM) | relative viability ([1]; first compound 0.8 µM) | relative viability ([1]; first compound 2.53 µM) | relative viability ([1]; first compound 8 µM) | relative viability ([2]; first compound 0.04 µM) | relative viability ([2]; first compound 0.1265 µM) | relative viability ([2]; first compound 0.4 µM) | relative viability ([2]; first compound 1.265 µM) | relative viability ([2]; first compound 4 µM) | relative viability (Tanzisertib + Pemetrexed; first compound 0.08 µM) | relative viability (Tanzisertib + Pemetrexed; first compound 0.253 µM) | relative viability (Tanzisertib + Pemetrexed; first compound 0.8 µM) | relative viability (Tanzisertib + Pemetrexed; first compound 2.53 µM) | relative viability (Tanzisertib + Pemetrexed; first compound 8 µM) | relative viability ([3]; first compound 0.04 µM) | relative viability ([3]; first compound 0.1265 µM) | relative viability ([3]; first compound 0.4 µM) | relative viability ([3]; first compound 1.265 µM) | relative viability ([3]; first compound 4 µM)
SW 1573 | 0.778 | 1.2 | 1.19 | 1.09 | 1.14 | 0.927 | 1.12 | 0.774 | 0.426 | 0.809 | 0.84 | 0.805 | 0.839 | 0.683 | 0.491 | 0.416 | 0.385 | 0.356 | 0.341
NCI-H1975 | 1.18 | 1.2 | 1.19 | 1.09 | 1.13 | 0.978 | 0.995 | 0.652 | 0.434 | 0.304 | 0.294 | 0.267 | 0.317 | 0.254 | 0.808 | 0.673 | 0.607 | 0.2 | 0.321
Calu-6 | 0.879 | 0.86 | 0.914 | 0.87 | 0.849 | 1.02 | 0.855 | 0.836 | 0.678 |  |  |  |  |  |  |  |  |  | 
NCI-H1648 |  |  |  |  |  |  |  |  |  | 0.689 | 0.698 | 0.775 | 0.754 | 0.735 | 0.267 | 0.34 | 0.279 | 0.371 | 0.414
NCI-H3122 | 0.98 | 1.05 | 0.979 | 1.03 | 1.05 | 1.01 | 0.981 | 0.976 | 0.989 | 0.2 | 0.192 | 0.193 | 0.19 | 0.188 | 0.221 | 0.188 | 0.23 | 0.243 | 0.221
NCI-H2347 | 0.784 | 0.556 | 0.855 | 0.823 | 0.806 | 0.86 | 0.846 | 0.89 | 0.752 | 0.454 | 0.468 | 0.435 | 0.408 | 0.442 | 0.422 | 0.443 | 0.41 | 0.483 | 0.463
HCC-44 | 0.931 | 1 | 1.07 | 0.971 | 0.979 | 0.99 | 1.15 | 0.946 | 0.698 | 0.642 | 0.637 | 0.597 | 0.624 | 0.688 | 0.929 | 0.96 | 1.02 | 1.15 | 1.02
HCC-78 | 0.729 |  | 0.836 | 0.884 | 1.08 | 0.79 | 1.2 | 1.11 | 0.782 | 0.965 | 0.901 | 0.915 | 0.882 | 0.934 | 0.456 | 0.45 | 0.544 |  | 0.482
NCI-H2342 |  |  |  |  |  |  |  |  |  | 0.867 | 0.749 | 0.768 | 0.708 | 0.668 | 0.513 | 0.53 | 0.596 | 0.498 | 0.532
NCI-H358 |  |  |  |  |  |  |  |  |  | 0.165 | 0.176 | 0.171 | 0.163 | 0.179 | 0.145 | 0.134 | 0.141 | 0.133 | 0.145
NCI-H727 | 0.411 | 0.459 | 0.623 | 0.67 | 0.524 | 0.579 | 0.676 | 0.484 | 0.411 |  |  |  |  |  | 0.667 | 0.714 | 0.746 | 0.748 | 0.798
ABC-1 |  |  |  |  |  |  |  |  |  |  |  |  |  |  | 0.662 | 0.775 | 0.789 | 0.976 | 0.552
LCLC-103H |  |  |  |  |  |  |  |  |  | 0.521 | 0.472 | 0.451 | 0.432 | 0.468 | 0.473 | 0.478 | 0.433 | 0.423 | 0.388
NCI-H596 | 1.01 | 1.07 | 1.02 | 0.958 | 1.01 | 1.2 | 0.96 | 1.06 | 0.955 | 0.506 | 0.538 | 0.515 | 0.516 | 0.467 |  |  |  |  | 
NCI-H1563 |  |  |  |  |  |  |  |  |  | 0.829 | 0.935 | 0.761 | 0.711 | 0.619 |  |  |  |  | 
NCI-H522 |  |  |  |  |  |  |  |  |  | 1.04 | 1.07 | 0.915 | 1.07 | 1.05 | 1.03 | 0.986 | 1.1 | 1.02 | 0.874
SW 900 |  |  |  |  |  |  |  |  |  |  | 0.51 | 0.501 | 0.451 | 0.464 | 0.564 | 0.607 | 0.547 | 0.581 | 0.611
NCI-H650 |  |  |  |  |  |  |  |  |  | 0.885 | 1.03 | 0.969 | 1.09 | 0.576 |  | 0.341 | 0.311 |  | 0.327
EBC-1 | 0.463 | 0.517 | 0.5 | 0.392 | 0.414 | 0.406 | 0.379 | 0.377 | 0.347 |  |  |  |  |  |  |  |  |  | 
IA-LM | 0.919 | 0.749 | 0.687 | 0.611 | 0.799 | 0.93 | 0.929 | 1.03 | 0.989 |  |  |  |  |  |  |  |  |  | 
NCI-H1703 | 1.08 | 1.59 | 1.15 | 1.35 | 1.28 | 1.11 | 1.06 |  | 0.616 |  |  |  |  |  |  |  |  |  | 
NCI-H661 |  |  |  |  |  |  |  |  |  | 0.896 | 0.896 | 0.872 | 0.919 | 0.913 | 0.388 | 0.464 | 0.41 | 0.35 | 0.362
